Assay results as given in patent US6187807A, “Methods of use and compositions of (S) (-)-amisulpride” (Sanofi-Synthelabo, priority 1999, dated 2001).

Experiments:
[1] = Antagonism of apomorphine-induced stereotypies; type: in vivo; conditions: rat, in vivo; ip; apomorphine 0.5 mg/kg sc, 30 min after drug
Protocol: (§1) The propensity of the drugs to induce extrapyramidal side effects was assessed by measuring their potential to induce catalepsy and to antagonize apomorphine-induced stereotyped behaviour and the sedative potential of the drugs was evaluated by their capacity to decrease spontaneous locomotor activity in the rat.
(§2) For scoring stereotypies, the following scale was used: 0: asleep; 1: awake; quiet; 2: locomotion, head bobbing; 3: sniffing; 4: licking; 5: chewing/gnawing. For each rat, a global score was calculated by averaging the 3 stereotypy scores obtained at 10 min intervals.

[2] = system: apomorphine-induced stereotypies; assay: Antagonism of apomorphine-induced stereotypies; type: in vivo; conditions: comparison in words
Protocol: as §1, §2

in vivo [3] = conditions: rat, ip, measured 2 hours and 4 hours after drug, read-out: Induction of catalepsy (ED50)
Protocol: as §1
The occurrence of catalepsy in rats was assessed using the four-cork test. This measurement was performed by placing each paw of the rat on a 2.5 cm high cork (diameter 1.2 cm). Distance between contralateral corks was 8 cm and between ipsilateral corks 13 cm. Catalepsy time was measured for a maximum of 2 min at 2 hours, and 4 hours after ip drug treatment.

in vivo [4] = conditions: rat, ip, 20 min recording, 30 min after drug, read-out: Decrease in spontaneous locomotor activity (ED50)
Protocol: as §1
Spontaneous locomotor activity was measured for 20 min immediately after rats were placed in the activity cages, 30 min after drug treatment.

[5] = system: apomorphine-induced hypermotility; assay: Antagonism of apomorphine-induced hypermotility; conditions: Rattus norvegicus, ip, 0.5 h, read-out: Antagonism of apomorphine-induced hypermotility (ED50)
Source text: These experimental conditions produce low baseline locomotor activity suitable for assessing increases in locomotion produced by apomorphine.

[6] = system: d-amphetamine-induced hypermotility; assay: Antagonism of d-amphetamine-induced hypermotility; conditions: for ED50: Rattus norvegicus, ip, 0.5 h, read-out: Antagonism of d-amphetamine-induced hypermotility (ED50)
Protocol: d-Amphetamine-induced hyperactivity was recorded for 20 min, 30 min after injection of d-amphetamine (2 mg/kg, ip) immediately after placing rats in the activity cages without habituation according to Gh.

Compound | ED50 [1] [mg/kg] | Potency at antagonizing apomorphine-induced stereotypies, (S)(-)-amisulpride compared with (R,S)-amisulpride [2] | ED50 (in vivo [3]) [mg/kg] | ED50 (in vivo [4]) [mg/kg] | ED50 [5] [mg/kg] | ED50 [6] [mg/kg] | Potency in tests predictive of antipsychotic activity, compared with (R,S)-amisulpride ([6]; antagonism of apomorphine or amphetamine hyperlocomotion, in words)
CCN1CCCC1CNC(=O)c1cc(S(=O)(=O)CC)c(N)cc1OC (racemic) [(R,S)-amisulpride, reference compound] | 115 | equipotent | > 100 | 100 | 30 | 3 | –
CCN1CCC[C@H]1CNC(=O)c1cc(S(=O)(=O)CC)c(N)cc1OC [(S)(-)-amisulpride, (S)-(-)-4-amino-N-[(1-ethylpyrrolidin-2-yl)methyl]-5-(ethylsulfonyl)-2-methoxybenzamide] | 100 | equipotent | > 100 | 100 | 15 | 1.2 | twice as potent
